A word on the IC50: it is the concentration that inhibits the measured activity by half.

Structures can show the parent of a compound that is named as a salt. Where two headings read alike, the source gives them in different places.

One data set has as its system T. b. brucei. Put plainly: microbe, parasite or virus in culture. It is filed as cell-based, T. b. brucei (strain Lister 427). Here is the method:
Cells were routinely diluted when reaching the mid-log-phase concentration of 2 × 10^6 cells/mL and maintained in culture for no more than 30 passages.
Compounds’ potency against trypanosomes was assessed by Alamar blue assay.[31] Cells were seeded at a final concentration of 2 × 10^4 cells/mL into serial dilutions of the test compound. After 48 h incubation at 37 °C and 5% CO2, 20 μL of resazurin dye (Sigma-Aldrich) solution at 0.49 mM was added, and cells were incubated for a further 24 h. The reduction of resazurin was measured with a fluorimeter (FLUOstar Optima, BMG Labtech) using 544 nm excitation and 590 nm emission wavelengths. Output was plotted using the IC50 determination algorithm of the GraphPad Prism 5.0 software. All experiments were carried out in duplicate and repeated on at least three independent occasions.

A further data set has as its system HEK 293T cells. In words: cells. It is filed as cell-based, human. The following applies: read-out: HEK (IC50 μM).
A short description of the next data set: Clearance (Cli). The data set is classed as in vitro ADME. The conditions noted are these: footnote: Cli is the clearance in vivo.
Data set [1] can be described thus: Metabolic stability in microsomal assay (t1/2). It is filed as in vitro ADME. The following applies: microsomes.
Data set [2] is described as follows: Plasma binding (fraction unbound). The data set is classed as in vitro ADME. The following applies: mouse; fraction unbound by plasma; read-out: plasma bind fu.
The test system of another data set is T. b. brucei strain 427. The following applies: infected mice, 30 mg/kg i.p. once daily up to 4 days; one surviving mouse per group; from ∼10^8.
Where [3] appears, read: Trypanosoma brucei, read-out: T. b. brucei (IC50 μM), medium not stated.
The mark [4] stands for this setting: Trypanosoma brucei, read-out: T. b. brucei (IC50 μM) CMM, Creek's minimal medium (CMM).
[5] abbreviates: Trypanosoma brucei, read-out: T. b. brucei (IC50 μM) HMI-9, HMI-9 medium.
Setting [6] is: half-life of the compound, read-out: t1/2.
[7] abbreviates: read-out: T. b. brucei (IC50 μM) CMM, Creek's minimal medium (CMM).
[8] abbreviates: read-out: T. b. brucei (IC50 μM) HMI-9, HMI-9 medium.

Description for T. b. brucei strain 427: Twenty-four hours postinfection mice were injected intraperitoneally with 30 mg/kg daily of test compound (repeated for four consecutive days), prepared in a 10% v/v DMSO, 40% v/v PEG, and 50% v/v water solution. Parasitaemia was monitored daily by tail venipuncture. Infected, untreated mice were used as control.

With `N#Cc1c(-c2cccc(C=O)c2)[nH]c2nc(N)nc(N)c12` [6a], the concentration for half-maximal inhibition (IC50) in the data set with T. b. brucei (setting [3]) was 6.03 µM.
As for `Nc1nc(N2CCSCC2)c2cc[nH]c2n1` [8b], the IC50 with T. b. brucei (setting [3]) came to 80.1 µM.
With `N#Cc1c[nH]c2nc(N)nc(N3CCSCC3)c12` [12d], the IC50 in the data set on T. b. brucei (setting [3]) turned out to be 14.3 µM.
For the compound `Cc1ccc(C(C[N+](=O)[O-])c2c(N)nc(N)[nH]c2=O)cc1` (stereo not shown) [26a], the IC50 worked out at 2.04 µM in the data set with T. b. brucei (setting [3]) and 73.4 µM in the data set on HEK 293T cells (Homo sapiens, HEK-293T).
Taken in the same sequence, the figures for `Nc1nc(N)c(C(C[N+](=O)[O-])c2ccc(F)cc2)c(=O)[nH]1` (stereo not shown) [26b] were 1.86 µM and 150 µM.
Taken in the same sequence, the figures for `Nc1nc(N)c(C(C[N+](=O)[O-])c2ccccc2)c(=O)[nH]1` (stereo not shown) [26c, 2,6-diamino-5-(2-nitro-1-phenylethyl)-4(3H)-pyrimidinone] were 1.02 µM and 134 µM.
Turning to `Nc1nc2[nH]cc(CCc3ccccc3)c2c(=O)[nH]1` [27d], the IC50 in the data set on T. b. brucei (setting [3]) came to 7620 µM.
With `Cc1ccc(C(C[N+](=O)[O-])c2c(N)nc(N)nc2N)cc1` (stereo not shown) [28a], the IC50 in the data set on T. b. brucei (setting [3]) amounted to 0.47 µM; with HEK 293T cells (Homo sapiens, HEK-293T), 32.5 µM.
As for `Nc1nc(N)c(C(C[N+](=O)[O-])c2ccc(F)cc2)c(N)n1` (stereo not shown) [28b], the IC50 with T. b. brucei (setting [3]) amounted to 0.16 µM; in the data set on HEK 293T cells (Homo sapiens, HEK-293T), 39.1 µM.
For `Nc1nc(N)c(C(C[N+](=O)[O-])c2ccccc2)c(N)n1` (stereo not shown) [28c, 5-(2-Nitro-1-phenylethyl)-2,4,6-pyrimidinetriamine] the same measures were 0.13 µM and 35 µM.
On to `Nc1nc(N)c(C(CCc2ccccc2)C[N+](=O)[O-])c(N)n1` (stereo not shown) [28d], for which, in the data set on T. b. brucei (setting [3]), the IC50 amounted to 8.82 µM.
`Nc1nc(N)c2c(-c3ccc(F)cc3)c[nH]c2n1` [29b] gave a Cli in the data set “Clearance (Cli)” of 1.7 mL/min/g.
`CC(C)COc1nc(N)nc(N)c1C(C[N+](=O)[O-])c1ccc(F)cc1` (stereo not shown) [30a]: the results for the IC50 in the data set on T. b. brucei (setting [4]) and with T. b. brucei (setting [5]) were 10.6 µM and 13.9 µM, respectively.
On to `Nc1nc(N)c(C(C[N+](=O)[O-])c2ccc(F)cc2)c(NC2CCCCC2)n1` (stereo not shown) [30b], for which the IC50 in the data set with T. b. brucei (setting [4]) was found to be 0.8 µM; with T. b. brucei (setting [5]), 0.54 µM; in the data set with HEK 293T cells (Homo sapiens, HEK-293T), 32.6 µM.
As to `CC(C)Oc1nc(N)nc(N)c1C(C[N+](=O)[O-])c1ccc(F)cc1` (stereo not shown) [30c, 5-[1-(4-Fluorophenyl)-2-nitroethyl]-6-isopropyloxy-2,4-pyrimidinediamine], the IC50 worked out at 8.48 µM in the data set on T. b. brucei (setting [4]) and 15.9 µM with T. b. brucei (setting [5]).
As for `Nc1nc2[nH]c(-c3ccccc3)c(-c3ccccc3)c2c(=O)[nH]1` [34a, 2-Amino-5,6-diphenyl-3,7-dihydro-4H-pyrrolo[2,3-d]pyrimidin-4-one], in data set [1] (setting [6]), the half-life is ~130 min. In addition, the IC50 in the data set with T. b. brucei (setting [4]) turned out to be 0.41 µM; in the data set on T. b. brucei (setting [5]), 0.64 µM; in the data set on T. b. brucei (setting [7]), 0.407 µM. Further, in data set [2], the fraction unbound is 0.029.
`Nc1nc2[nH]c(-c3ccc(F)cc3)c(-c3ccccc3)c2c(=O)[nH]1` [34c, 2-Amino-6-(4-fluorophenyl)-5-phenyl-3,7-dihydro-4H-pyrrolo[2,3-d]pyrimidin-4-one] returned a Cli in “Clearance (Cli)” of 0.17 mL/min/g. Moreover, the half-maximal inhibitory concentration (IC50) was 0.61 µM in the data set with T. b. brucei (setting [4]); 0.74 µM in the data set on T. b. brucei (setting [5]); 0.614 µM with T. b. brucei (setting [7]); 0.738 µM in the data set on T. b. brucei (setting [8]); > 200 µM in the data set with HEK 293T cells (Homo sapiens, HEK-293T). Besides, in data set [2], the fraction unbound came to 0.017.
Compound `Nc1nc2[nH]c(-c3ccccc3)c(CCc3ccccc3)c2c(=O)[nH]1` [34i] registered a Cli in the data set “Clearance (Cli)” of 2.5 mL/min/g.
Same read-out and setting: the result for `Nc1nc2[nH]c(-c3ccc(F)cc3)c(-c3cccc(Cl)c3)c2c(=O)[nH]1` [34l] reads <0.5 mL/min/g.
As to `Nc1nc(N)c2c(-c3ccccc3)c(-c3ccccc3)[nH]c2n1` [35a, 5,6-Diphenyl-7H-pyrrolo[2,3-d]pyrimidine-2,4-diamine], the half-life in data set [1] (setting [6]) was ~100 min. Further, the Cli in the data set “Clearance (Cli)” amounted to 5.26 mL/min/g. Besides, the IC50 was 0.58 µM in the data set on T. b. brucei (setting [4]); 2.25 µM in the data set with T. b. brucei (setting [5]); 0.583 µM in the data set on T. b. brucei (setting [7]); 2.25 µM in the data set on T. b. brucei (setting [8]); 62.9 µM in the data set on HEK 293T cells (Homo sapiens, HEK-293T); 62.9 µM with HEK 293T cells. Also, the fraction unbound in data set [2] was 0.035.
`Nc1nc(N)c2c(-c3ccccc3)c(-c3ccc(F)cc3)[nH]c2n1` [35b, 6-(4-Fluorophenyl)-5-phenyl-7H-pyrrolo[2,3-d]pyrimidine-2,4-diamine]: the reduction of parasitaemia entry in the data set on T. b. brucei strain 427 is “below detectable limits”. For the same compound, the half-life was > 500 min in data set [1] (setting [6]) and > 480 min in data set [1] (metabolic stability in microsomal assay, read-out: t1/2 in microsomal assay). The compound also yielded a Cli in “Clearance (Cli)” of 1.90 mL/min/g. In addition, the IC50 in the data set on T. b. brucei (setting [4]) was determined as 0.08 µM; in the data set with T. b. brucei (setting [5]) it was 0.32 µM; with T. b. brucei (setting [7]), 0.082 µM; with T. b. brucei (setting [8]) it was 0.321 µM; with HEK 293T cells (Homo sapiens, HEK-293T), 49.2 µM; in the data set with HEK 293T cells, 49.2 µM. In data set [2], the fraction unbound was 0.011.
Turning to `N#Cc1c[nH]c2nc(N)nc(N)c12` [compound 4, 2,4-diamino-7H-pyrrolo[2,3-d]pyrimidine-5-carbonitrile], the IC50 with T. b. brucei (setting [3]) was 2440 µM.
Compound `Nc1nc(N2CCCC2)c2c(C#Cc3ccccc3)c[nH]c2n1` [compound 20, 5-(Phenylethynyl)-4-(1-pyrrolidinyl)-7H-pyrrolo[2,3-d]pyrimidin-2-amine] showed a Cli in “Clearance (Cli)” of 5.6 mL/min/g.
Regarding `Nc1nc2[nH]c(-c3ccc(CCCN4CCOCC4)cc3)c(-c3ccccc3)c2c(=O)[nH]1` [compound 38, 2-Amino-6-{4-[3-(4-morpholinyl)propyl]phenyl}-5-phenyl-3,7-dihydro-4H-pyrrolo[2,3-d]pyrimidin-4-one trifluoroacetate], the values for the IC50 in the data set on T. b. brucei (setting [4]) and in the data set with T. b. brucei (setting [5]) were 20.1 µM and 38.1 µM, respectively.
For `N=C(N)c1ccc(/N=N/Nc2ccc(C(=N)N)cc2)cc1` [diminazene, reference compound], the IC50 stood at 0.007 µM in the data set with T. b. brucei (setting [4]) and 0.027 µM with T. b. brucei (setting [5]).
Taken in the same sequence, the figures for `CN(Cc1cnc2nc(N)nc(N)c2n1)c1ccc(C(=O)N[C@@H](CCC(=O)O)C(=O)O)cc1` [methotrexate, reference compound] were 0.011 µM and 3.66 µM.

The values are drawn from paper PMC4136963, “Structure-Based Design and Synthesis of Antiparasitic Pyrrolopyrimidines Targeting Pteridine Reductase 1” (Journal of Medicinal Chemistry, 2014).
